From patent US12679840B2, “Process for the preparation of (9S)-N-[3-(6-methylpyrimidin-4-yl)-3-azabicyclo[3.2.1]octan-8-yl]-9-(2,3,4-trifluorophenyl)-6,7,8,9-tetrahydro-5H-[1,2,4]triazolo[1,5-a]azepin-2-amine and its solid form” (Hoffmann-La Roche Inc., priority 2020, dated 2026)
≈ marks a conversion by molar mass, not a printed value. Where “and” joins values, the source holds several entries; their conditions need not be identical. Identical values can stand only once.

Test: Solubility study of Form A in buffers, water and biorelevant media (suspension shaken 24 hours at 25° C., filtrate by UPLC)
Format: physicochemical
Details: for solubility at 24 h: thermodynamic from solid
Experimental: • pH 1.00 buffer • pH 3.00 buffer • pH 5.00 buffer • pH 7.00 buffer • pH 9.00 buffer • Water • SGF without Triton • FaSSIF • FeSSIF b. Testing Procedure
Weigh about 5 mg of compound (I) into glass vial and add 0.5 ml testing medium listed above to form suspension. Shake these suspensions at 1200 rpm for about 24 hours under 25° C.
At the end of 24 hours, pull out all the vials and filter the suspensions by 0.22 μm PVDF filters. Check the pH value and concentration of filtrate by pH meter and UPLC respectively.
The result indicates the solubility is pH dependent.

solubility at 24 h (FaSSIF, 25 °C, about 24 hours, individual replicate): 34 µg/mL (≈ 70.3 µM)
solubility at 24 h (FaSSIF, 25 °C, about 24 hours, mean ± spread of three replicates): 33 µg/mL (≈ 68.2 µM)
Solubility (FaSSIF, about 24 hours, individual replicate): 33 µg/mL (≈ 68.2 µM)
solubility at 24 h (FeSSIF, 25 °C, about 24 hours, individual replicate): 614 µg/mL (≈ 1270 µM)
solubility at 24 h (FeSSIF, 25 °C, about 24 hours, mean ± spread of three replicates): 618 ± 7 µg/mL (≈ 1280 µM)
Solubility (FeSSIF, about 24 hours, individual replicate): 611 µg/mL and 628 µg/mL
solubility at 24 h (SGF without Triton-X100, 25 °C, simulated gastric fluid, SGF without Triton-X100, about 24 hours, individual replicate): > 10000 µg/mL
solubility at 24 h (SGF without Triton-X100, 25 °C, simulated gastric fluid, SGF without Triton-X100, about 24 hours, mean of three replicates): > 10000 µg/mL
Solubility (Water, about 24 hours, individual replicate): 6 µg/mL (≈ 12.4 µM)
solubility at 24 h (pH 1.0 buffer, 25 °C, pH 1, aqueous buffer, about 24 hours, individual replicate): > 10000 µg/mL
solubility at 24 h (pH 1.0 buffer, 25 °C, pH 1, aqueous buffer, about 24 hours, mean of three replicates): > 10000 µg/mL
solubility at 24 h (pH 3.0 buffer, 25 °C, pH 3, aqueous buffer, about 24 hours, individual replicate): 5480 µg/mL (≈ 11300 µM)
solubility at 24 h (pH 3.0 buffer, 25 °C, pH 3, aqueous buffer, about 24 hours, mean ± spread of three replicates): 5347 ± 47 µg/mL (≈ 11100 µM)
Solubility (pH 3.0 buffer, about 24 hours, individual replicate): 5366 µg/mL and 5468 µg/mL
solubility at 24 h (pH 5.0 buffer, 25 °C, pH 5, aqueous buffer, about 24 hours, individual replicate): 91 µg/mL (≈ 188 µM)
solubility at 24 h (pH 5.0 buffer, 25 °C, pH 5, aqueous buffer, about 24 hours, mean ± spread of three replicates): 101 ± 9 µg/mL (≈ 209 µM)
Solubility (pH 5.0 buffer, about 24 hours, individual replicate): 97 µg/mL and 114 µg/mL
solubility at 24 h (pH 7.0 buffer, 25 °C, pH 7, aqueous buffer, about 24 hours, individual replicate): 7 µg/mL (≈ 14.5 µM)
solubility at 24 h (pH 7.0 buffer, 25 °C, pH 7, aqueous buffer, about 24 hours, mean ± spread of three replicates): 6 µg/mL (≈ 12.4 µM)
Solubility (pH 7.0 buffer, about 24 hours, individual replicate): 6 µg/mL (≈ 12.4 µM)
solubility at 24 h (pH 9.0 buffer, 25 °C, pH 9, aqueous buffer, about 24 hours, individual replicate): 6 µg/mL (≈ 12.4 µM)
solubility at 24 h (pH 9.0 buffer, 25 °C, pH 9, aqueous buffer, about 24 hours, mean ± spread of three replicates): 6 µg/mL (≈ 12.4 µM)
solubility at 24 h (water, 25 °C, about 24 hours, individual replicate): 7 µg/mL (≈ 14.5 µM)
solubility at 24 h (water, 25 °C, about 24 hours, mean ± spread of three replicates): 6 µg/mL (≈ 12.4 µM)
Compound: Cc1cc(N2CC3CCC(C2)C3Nc2nc3n(n2)CCCC[C@H]3c2ccc(F)c(F)c2F)ncn1 (stereo partly drawn) [Form A, (9S)-N-[3-(6-methylpyrimidin-4-yl)-3-azabicyclo[3.2.1]octan-8-yl]-9-(2,3,4-trifluorophenyl)-6,7,8,9-tetrahydro-5H-[1,2,4]triazolo[1,5-a]azepin-2-amine]
